Results taken from BigSolDB 2.1.

CC1=NN(c2ccccc2)C(=O)C1
solubility (mole fraction)
Conditions | in 2,4-dimethylphenol | in DMSO | in NMP | in diglyme | in morpholine-4-carbaldehyde | in tetraglyme | in triglyme
298.15 K | 0.0188 | 0.0758 | 0.0383 | 0.0205 | 0.0111 | 0.0463 | 0.0153
303.15 K | 0.0282 | 0.122 | 0.0496 | 0.0269 | 0.0146 | 0.0863 | 0.022
308.15 K | 0.0408 | 0.201 | 0.0694 | 0.0333 | 0.0176 | 0.131 | 0.0311
313.15 K | 0.0565 | 0.298 | 0.0861 | 0.0416 | 0.0217 | 0.212 | 0.0457
